Reference: patent publication US20070166367A1, “Adept or gdept producing acetaldehyde” (priority 2004, published 2007)
Read-outs that look alike come from different tables or passages of the source.

Tests used:
Ad-ADH CMT-64 cells [1] = assay: Ad-ADH ethanol cytotoxicity assay; type: cell-based; details: for numbers of cells: seeded at 5×10^5 on Day 0, day 2, FIG. 4; for total cell number as % of the starting number: ethanol
Method: (§1) Cells were placed into 6 well plates at 5×10^6 per well. After overnight incubation, the cells were washed twice in PBS then incubated with virus (Hela MOI 100, CMT-64 MOI 1000) at 37° C. for 1 hr in 1 ml of serum free media. Following addition of 3 mls more of tissue culture medium the cells were incubated overnight, assayed for ADH activity and used for experiments as below.

Ad-ADH Hela cells = assay: Ad-ADH ethanol cytotoxicity assay; type: cell-based; details: seeded at 5×10^5 on Day 0, day 2, FIG. 4
Method: as §1

Daudi = assay: in vitro acetaldehyde and cisplatin toxicity assay; type: cell-based; details: higher cell density, 3 days exposure, FIG. 2
Method: (§2) Standard tissue culture techniques were used to maintain Hela, Daudi, Jurkat, CMT-64 cells in flasks in DMEM+10% FCS in a 37° C. incubator.
(§3) Cell lines subcloned into 25-cm^2 flasks and incubated in media containing dilutions of acetaldehyde, cisplatin or both. Flasks remained sealed during incubation and the media and acetaldehyde/cisplatin were replaced daily. Viable cell counts were made using Trypan blue exclusion and a standard haemocytometer.

CMT-64 = assay: in vitro acetaldehyde and cisplatin toxicity assay; type: cell-based; details: FIG. 2
Method: as §2, §3

Daudi lymphoma cells = assay: acetaldehyde combined with Cisplatin in vitro; type: cell-based
Source text: The results shown are the number of live cells at each time point shown as a % of the number of cells at the start of the expt (ie 100% at time 0 hrs).

[2] = in vivo; cited from earlier work
[3] = cited from earlier work
CMT-64 cells = details: ethanol IP for several days, particularly on Day 6, FIG. 5
Method: CMT-64 cells are injected s-c into mice and tumour growth allowed to proceed.
Virus described above is introduced into the CMT-64 cells.
Alcohol (ethanol) is injected IP for several days.
Tumour dimensions are monitored thereafter.

wild type CMT-64 cells = details: ethanol 2 g/kg IP days 0-4 (group 3)
Method: (§4) The animal experiment was approved by the Cancer Research UK animal use and safety committee and the Home Office before initiation. On the day prior to injection, 6×10^6 CMT-64 cells were transduced with the Ad-ADH virus in vitro, then on Day 0 adult C57B/6 mice received s-c injections in the flank of 5×10^5 Ad-ADH CMT-64 cells (groups 1 and 2) or mock infected CMT-64 cells (groups 3 and 4) suspended in 100 uL of PBS. On days 0-4 groups 1 and 3 were injected with 500 ul of 12% ethanol (2 g/kg) solution IP and groups 2 and 4 received 500 uL of water IP, there were 6 mice in each group. Tumour volume was estimated twice weekly using the formula: volume=(length×width×width)×(3.142/6).
(§5) Tumour size was measure on Days 6, 10 and 13; the results are shown as the mean and SD from 6 mice per group.

Ad-ADH CMT-64 cells [4] = test system: Ad-ADH CMT-64 cells
Method: as §4, §5

[5] = chronic exposure to ethanol (4%), +12 weeks; cited from earlier work

Cc1cn[nH]c1 [4-MP, 4-methylpyrazole]
effect on ethanol mediated growth reduction (Ad-ADH CMT-64 cells [1]; 4-MP 10 uMol): blocking of this effect

N.N.[Cl][Pt][Cl] [cisplatin, Cisplatin]
numbers of cells (Ad-ADH CMT-64 cells [1]): 3.75×10^5 | numbers of cells (Ad-ADH Hela cells): 3.2×10^5 | cell number as % of starting number (Daudi): 21% | cell number as % of starting number (CMT-64): 80% | number of live cells as a % of the number of cells at the start (Daudi lymphoma cells; Cisplatin at 30 μM, 6 hr): 147% | number of live cells as a % of the number of cells at the start (Daudi lymphoma cells; Cisplatin at 30 μM, 18 hr): 122% | number of live cells as a % of the number of cells at the start (Daudi lymphoma cells; Cisplatin at 30 μM, 21 hr): 76% | number of live cells as a % of the number of cells at the start (Daudi lymphoma cells; Cisplatin at 30 μM, 25 hr): 82% | number of live cells as a % of the number of cells at the start (Daudi lymphoma cells; Cisplatin at 30 μM, 42 hr): 36% | number of live cells as a % of the number of cells at the start (Daudi lymphoma cells; repeated experiment, +25 hours): 63%

CCO [ethanol]
well tolerated levels [2]: 500 to 2500 mg/L | time until blood ethanol levels fell below the limit of detection ([3]; IP ethanol injections of 3.7-3.8 g/kg): 6 to 7 h | rate of ethanol metabolism in mice relative to humans ([3]; mouse, in vivo): 5 times | cell number as % of non-ethanol exposed controls (Ad-ADH CMT-64 cells [1]; 2 days ethanol exposure): 30% | number of cells (Ad-ADH CMT-64 cells [1]; ethanol 20 mM, day 2, FIG. 3): 3.7×10^5 | total cell number as % of the starting number (Ad-ADH CMT-64 cells [1]; day 2): 74% | total cell number as % of the starting number (Ad-ADH CMT-64 cells [1]; day 4): 36% | number of cells (Ad-ADH CMT-64 cells [1]; extended ethanol exposure, day 4): 1.8×10^5 | numbers of cells (Ad-ADH CMT-64 cells [1]): 3.5×10^5 | numbers of cells (Ad-ADH Hela cells): 6.2×10^5 | tumour growth (CMT-64 cells): significant inhibition of growth | mean tumour volumes (wild type CMT-64 cells; day 6): 0.1645 cm^3 | mean tumour volumes (wild type CMT-64 cells; day 13): 0.514 cm^3 | tumour size of one mouse (Ad-ADH CMT-64 cells [4]; Day 10 and Day 23, no further increase): 0.058 cm3 | median size as % of the water treated controls (Ad-ADH CMT-64 cells [4]; day 6): 30% | median size as % of the water treated controls (Ad-ADH CMT-64 cells [4]; day 13): 42% | mean size of the tumours (Ad-ADH CMT-64 cells [4]; ethanol 2 g/kg IP days 0-4, day 6): 0.036 cm^3 | mean size of the tumours (Ad-ADH CMT-64 cells [4]; ethanol 2 g/kg IP days 0-4, day 13): 0.18 cm3 | cardiac toxicity [5]: severe myocardial damage
